These results are taken from article PMC9781087, “Discovery of New Microbial Collagenase Inhibitors” (Life, 2022).

Series [1] addresses collagenase A (ColA) (Clostridium perfringens, UniProt P43153). Briefly: biochemical. Further details: species or system C. perfringens. The conditions noted are these: for Inhibition (%) on ColA: after 30 min of incubation.
Series [2] in a line: Solubility. The conditions noted are these: in words.
Series [3] relates to Staphylococcus aureus, Enterococcus faecalis, and Staphylococcus epidermidis. Set-up: method as in PMID 31486108. The conditions noted are these: cited from earlier work.
Series [4] relates to mice. Further details: method as in PMID 34684834. The conditions noted are these: acute toxicity; cited from earlier work.
The subject of series [5] is neuraminidase protein of Clostridium perfringens. The conditions noted are these: cited from earlier work.
Series [6] addresses collagenase from Clostridium histolyticum. Set-up: method as in PMID 16276971. The conditions noted are these: cited from earlier work.
Series [7] relates to rats intratendineously injected with collagenase. Set-up: method as in PMID 28165813. The conditions noted are these: intragastrical administration, 100 mg/kg; cited from earlier work.
Where [8] appears, read: read-out: Inhibition (%) on ColA.
[9] abbreviates: read-out: Inhibition(%) on ColA.
Where [10] appears, read: 100 µM, preliminary screening (Table S1), * = compound precipitated due to low solubility.

Like-named read-outs stand apart in the source and are kept apart here.

Chain of collagenase A (ColA) (P43153 87-1104 limits assumed): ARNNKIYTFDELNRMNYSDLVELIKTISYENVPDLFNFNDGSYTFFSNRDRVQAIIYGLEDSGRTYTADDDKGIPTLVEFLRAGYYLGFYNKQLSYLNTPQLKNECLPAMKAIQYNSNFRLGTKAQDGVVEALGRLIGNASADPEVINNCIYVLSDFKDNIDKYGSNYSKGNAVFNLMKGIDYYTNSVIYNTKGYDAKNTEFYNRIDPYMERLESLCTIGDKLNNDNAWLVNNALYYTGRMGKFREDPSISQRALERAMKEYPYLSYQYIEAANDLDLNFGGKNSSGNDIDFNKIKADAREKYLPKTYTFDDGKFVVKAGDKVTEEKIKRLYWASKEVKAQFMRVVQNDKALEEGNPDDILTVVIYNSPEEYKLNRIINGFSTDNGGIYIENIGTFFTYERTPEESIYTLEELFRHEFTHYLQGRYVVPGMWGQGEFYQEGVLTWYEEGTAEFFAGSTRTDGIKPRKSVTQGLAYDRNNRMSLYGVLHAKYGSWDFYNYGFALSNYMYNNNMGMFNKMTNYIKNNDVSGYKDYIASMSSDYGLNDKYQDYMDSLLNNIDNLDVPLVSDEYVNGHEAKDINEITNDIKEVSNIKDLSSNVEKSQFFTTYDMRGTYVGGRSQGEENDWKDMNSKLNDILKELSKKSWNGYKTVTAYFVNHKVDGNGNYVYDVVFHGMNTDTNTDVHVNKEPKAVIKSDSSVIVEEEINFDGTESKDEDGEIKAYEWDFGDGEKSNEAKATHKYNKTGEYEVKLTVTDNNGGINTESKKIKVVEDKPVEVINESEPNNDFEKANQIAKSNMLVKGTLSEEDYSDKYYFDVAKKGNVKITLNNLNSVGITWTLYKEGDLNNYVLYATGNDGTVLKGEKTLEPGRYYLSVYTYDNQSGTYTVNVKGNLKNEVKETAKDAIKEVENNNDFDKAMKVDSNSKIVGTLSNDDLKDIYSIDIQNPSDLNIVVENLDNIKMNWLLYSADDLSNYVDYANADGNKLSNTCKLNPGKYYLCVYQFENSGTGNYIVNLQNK

What is called inhibition is the drop in the measured response relative to a control, in per cent. As to `O=C1c2ccc(O)cc2OC(c2cc(O)c(O)c(O)c2)C1O` (stereo not shown) [Dihydrorobinetin, dihydrorobinetin], the “Inhibition (%) on ColA” value in series [1] (10 µM, mean ± SD of three replications) is reported as “Almost complete inhibition”. Also, in series [1] (setting [8]), the inhibition at 1 µM was -16.5 ± 1.6%, the inhibition at 5 µM is -29.7 ± 0.5% and the inhibition at 10 µM is 105.1 ± 0.5%. Moreover, the inhibition at 100 µM in series [1] (setting [9]) was found to be 96.9%. Further, in series [2], the solubility result is “poor solubility in water”.
In the case of `O=C1C=CC(=O)c2c(O)cccc21` [Juglone, juglone], in series [1], the “inhibitory effect on ColA (in words)” value is given as “potent inhibitors of ColA”. Further, the “Inhibition (%) on ColA” value in series [1] (100 µM, mean ± SD of three replications (five-dose assay)) is listed as “Almost complete inhibition”. Further, in series [1] (setting [8]), the inhibition at 1 µM came to 13.8 ± 1.5%, the inhibition at 5 µM was determined as 50.6 ± 0.5%, the inhibition at 10 µM is 69.2 ± 0.4% and the inhibition at 50 µM was 80.8 ± 0.7%. For the same compound, in series [3], the “impact on the bacterial growth” value is given as “low impact on the bacterial growth”.
Regarding `COc1cc2c(cc1OC)-c1cc3ccc(OC)c(OC)c3c[n+]1CC2` [Palmatine chloride, palmatine chloride], in series [1] (50 µM, mean ± SD of three replications), the “Inhibition (%) on ColA” value is “Almost complete inhibition”. In series [1] (setting [8]), the inhibition at 1 µM turned out to be 15.5 ± 3.9%, the inhibition at 5 µM came out at 35.4 ± 1.8%, the inhibition at 10 µM was 84.9 ± 1.5% and the inhibition at 50 µM worked out at 97.9 ± 1.6%. For the same compound, the inhibition at 100 µM in series [1] (setting [8]) turned out to be 98.7 ± 0.4%. The inhibition at 100 µM in series [1] (setting [9]) was 103%. In addition, the “lethal dose 50” value in series [4] is reported as 1533.68 mg/kg. Also, the “neuraminidase inhibition (in words)” value in series [5] was “potent effect”.
As to `CC1CNc2c(cccc2S(=O)(=O)N[C@@H](CCCNC(=N)N)C(=O)N2CC[C@@H](C)C[C@@H]2C(=O)O)C1` (stereo partly shown) [argatroban, reference compound], in series [1] (setting [9]), the inhibition at 100 µM is -12.3%.
The IC50 is the concentration that gives 50% inhibition. Turning to `O=c1c(O)c(-c2ccc(O)c(O)c2)oc2cc(O)cc(O)c12` [quercetin], the IC50 in series [6] is 286 µM.
Turning to `Cc1cc(O)c2c(c1)C(=O)c1cccc(O)c1C2=O` [chrysophanol], the inhibition at 100 µM in series [1] (setting [9]) was -11.1%.
Consider `O=C(O)[C@@H](S)[C@@H](S)C(=O)O` [meso-2,3-dimercaptosuccinic acid, reference compound], for which, in series [1] (setting [9]), the inhibition at 100 µM is 25.6%.
As to `O=c1c(O)c(-c2cc(O)c(O)c(O)c2)oc2cc(O)cc(O)c12` [Myricetin, myricetin], the “inhibitory effect on ColA (in words)” value in series [1] is “low inhibitory effect”. Besides, in series [1] (setting [8]), the inhibition at 1 µM was -15.4 ± 2.7%, the inhibition at 5 µM is -4.5 ± 1.1%, the inhibition at 10 µM was -1 ± 1.1% and the inhibition at 50 µM came out at 13.6 ± 0.6%. Moreover, the inhibition at 100 µM in series [1] (setting [8]) was 23.2 ± 2%. Moreover, in series [1] (setting [9]), the inhibition at 100 µM stood at 27.6%.
For `C[C@@H]1CC[C@H]2[C@@H](C)C(=O)O[C@@H]3O[C@@]4(C)CC[C@@H]1[C@]32OO4` [artemisinin, reference compound], the inhibition at 100 µM in series [1] (setting [9]) is 5.6%.
Same read-out and setting: next, `CC1(C)[C@H](C(=O)O)N2C(=O)C[C@H]2S1(=O)=O` [sulbactam, reference compound]: -10.7%; `O=c1ccc2cc(O)ccc2o1` [6-hydroxycoumarin]: 12.5%.
In the case of `O=C(/C=C/C=C/c1ccc2c(c1)OCO2)N1CCCCC1` [Piperine, piperine], in series [7], the “morphological structure of rats' tendons” value is on record as “improvement of the morphological structure”. Further, in series [1], the “IC50 (in words)” value is recorded as “nanomolar range” and the “inhibitory effect on ColA (in words)” value is reported as “potent inhibitory effects on ColA, even at small concentration”. Moreover, in series [1] (setting [8]), the inhibition at 1 µM was found to be 84.5 ± 0.4%, the inhibition at 5 µM is 82.4 ± 0.4% and the inhibition at 10 µM amounted to 72.5 ± 2.7%. Besides, the inhibition at 100 µM in series [1] (setting [9]) was 81.1%. Also, the solubility entry in series [2] is recorded as “low solubility”.
Regarding `O=c1cc(-c2ccc(O)cc2)oc2cccc(O)c12` [4′,5-Dihydroxyflavone, 4′,5-dihydroxyflavone], in series [1], the “IC50 (in words)” value is “nanomolar range” and the “inhibitory effect on ColA (in words)” value was “potently inhibits its activity”. Moreover, in series [1] (5 µM, mean ± SD of three replications), the “Inhibition (%) on ColA” value was “Almost complete inhibition”. For the same compound, in series [1] (setting [8]), the inhibition at 1 µM was -48 ± 3.6%, the inhibition at 5 µM worked out at 101.6 ± 0.6%, the inhibition at 10 µM is 107.5 ± 1% and the inhibition at 50 µM worked out at 101 ± 1.9%. Also, the inhibition at 100 µM in series [1] (setting [8]) is 105 ± 2.9%. Besides, the inhibition at 100 µM in series [1] (setting [9]) worked out at 15%.
As for `CC1=CC(=O)c2c(O)cccc2C1=O` [plumbagin], the inhibition at 100 µM in series [1] (setting [9]) is -7.7%.
The same measure, in the same setting: next, `CC(O)(P(=O)(O)O)P(=O)(O)O` [etidronic acid, reference compound]: 23%; `COc1ccc2cc3[n+](cc2c1OC)CCc1cc2c(cc1-3)OCO2` [berberine]: -2.5%.
In the case of `CCOC(=O)[C@H](CCCNC(=N)N)NC(=O)c1ccccc1.Cl` [benzoyl-L-arginine ethyl ester hydrochloride], the “Inhibition (%) on ColA” value in series [1] (setting [10]) was -6.6%.
With `Nc1ccc2c(c1N)C(=O)c1ccccc1C2=O` [1,2-diaminoanthraquinone], the inhibition at 100 µM in series [1] (setting [9]) was found to be 4.3%.
With `Cl.NCCS` [cysteamine hydrochloride, reference compound], the “Inhibition (%) on ColA” value in series [1] (setting [10]) turned out to be 2.8%.
With `O=c1c(O)c(-c2ccccc2)oc2ccc(O)cc12` [3,6-dihydroxyflavone], the “inhibitory effect on ColA (in words)” value in series [1] is given as “low inhibitory effects”. Besides, the inhibition at 100 µM in series [1] (setting [9]) is 2.7%.
In the case of `O=c1cc(-c2ccccc2)oc2cccc(O)c12` [Primuletin, primuletin], the “inhibitory effect on ColA (in words)” value in series [1] was “low impact on the enzyme activity”. For the same compound, in series [1] (setting [8]), the inhibition at 1 µM was -9.3 ± 1.7%, the inhibition at 5 µM is -8.8 ± 2.1%, the inhibition at 10 µM was -0.7 ± 1.3% and the inhibition at 50 µM was determined as 8.5 ± 2.1%. Besides, in series [1] (setting [8]), the inhibition at 100 µM turned out to be 25.4 ± 1.8%. Besides, the inhibition at 100 µM in series [1] (setting [9]) amounted to 33.1%.
In the case of `O=C(O)C1NCCc2c1[nH]c1ccccc21` (stereo not drawn) [1,2,3,4-tetrahydro-beta-carboline-1-carboxylic acid], the inhibition at 100 µM in series [1] (setting [9]) was determined as 1.5%.
On the same count and under the same terms, next, `CC(=O)NCCCS(=O)(=O)O` [acamprosate calcium, reference compound]: 17.2%.
